Measurements reported in paper PMC7780120, “Modulators of histone demethylase JMJD1C selectively target leukemic stem cells” (FEBS Open Bio, 2020).

Biological target: T1, JMJD1C (partial, 2274-2498aa) (Homo sapiens, UniProt Q15652)
T1 construct: immobilised on CM7 chip
T1 sequence (Q15652 2274-2498): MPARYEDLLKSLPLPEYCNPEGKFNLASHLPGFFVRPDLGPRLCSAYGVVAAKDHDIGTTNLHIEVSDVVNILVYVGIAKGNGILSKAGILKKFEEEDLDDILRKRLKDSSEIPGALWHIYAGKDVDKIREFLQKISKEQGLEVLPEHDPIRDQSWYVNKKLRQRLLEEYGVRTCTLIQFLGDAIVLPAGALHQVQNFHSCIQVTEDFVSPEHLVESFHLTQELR
Assay: SPR, immobilised protein, […] Langmuir fit
Format: binding

- Kd: 256 µM
SMILES: CN1CC(=O)N2[C@H](c3ccc4c(c3)OCO4)c3[nH]c4ccccc4c3C[C@@H]2C1=O [tadalafil]
